Key:
Experiment in all cases: relative viability (nuclei count vs DMSO), 5 days (fraction); higher = more cells survive
BAM7 + Palbociclib = compound: CCOC1=CC=CC=C1N=NC2=C(NN(C2=O)C3=NC(=CS3)C4=CC=CC=C4)C [BAM7] + CC(=O)c1c(C)c2cnc(Nc3ccc(N4CCNCC4)cn3)nc2n(C2CCCC2)c1=O [Palbociclib] (partner 0.5 µM)
Method in brief: (§1)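 Lung cancer cell lines in 1536-well plates were dosed by pin tool the day after seeding, either with one drug alone or with a fixed anchor-drug dose plus five library-drug doses (not always all listed) in √10 steps. After 5 days, cells were fixed and their nuclei stained in one step (final 0.05% Triton X-100, 1% formaldehyde, 1 ug/ml Hoechst), then counted on 4× images. Relative viability is the nuclei count in treated wells divided by that in vehicle wells. Values are medians of duplicate plates.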

BAM7 + Luminespib = compound: CCOC1=CC=CC=C1N=NC2=C(NN(C2=O)C3=NC(=CS3)C4=CC=CC=C4)C [BAM7] + CCNC(=O)c1noc(-c2cc(C(C)C)c(O)cc2O)c1-c1ccc(CN2CCOCC2)cc1 [Luminespib] (partner 0.01 µM)
Method in brief: as §1

BAM7 + AZD7762 = compound: CCOC1=CC=CC=C1N=NC2=C(NN(C2=O)C3=NC(=CS3)C4=CC=CC=C4)C [BAM7] + NC(=O)Nc1cc(-c2cccc(F)c2)sc1C(=O)N[C@H]1CCCNC1 [AZD7762] (partner 0.2 µM)
Method in brief: as §1

[1] = compound: CCn1c(-c2nonc2N)nc2c(C#CC(C)(C)O)ncc(OC[C@H]3CCCNC3)c21 + CC(=O)c1c(C)c2cnc(Nc3ccc(N4CCNCC4)cn3)nc2n(C2CCCC2)c1=O [Palbociclib] (partner 0.5 µM)
Method in brief: as §1

In the case of NCI-H1944, the relative viability (BAM7 + Palbociclib; first compound 0.5 µM) is reported as 0.365, the relative viability (BAM7 + Palbociclib; first compound 5 µM) is reported as 0.366 and the relative viability (BAM7 + Palbociclib; first compound 15.81 µM) is reported as 0.281. For the same cell line, the relative viability (BAM7 + Palbociclib; first compound 50 µM) was 0.37, the relative viability (BAM7 + Luminespib; first compound 0.5 µM) was 0.762 and the relative viability (BAM7 + Luminespib; first compound 5 µM) was 0.789. It also gave a relative viability (BAM7 + Luminespib; first compound 15.81 µM) of 0.617, a relative viability (BAM7 + Luminespib; first compound 50 µM) of 0.855 and a relative viability (BAM7 + AZD7762; first compound 0.5 µM) of 0.51. For the same cell line, the relative viability (BAM7 + AZD7762; first compound 5 µM) was 0.525, the relative viability (BAM7 + AZD7762; first compound 15.81 µM) was 0.508 and the relative viability (BAM7 + AZD7762; first compound 50 µM) was 0.623. It also gave a relative viability ([1]; first compound 0.01 µM) of 0.359, a relative viability ([1]; first compound 0.03162 µM) of 0.353 and a relative viability ([1]; first compound 0.1 µM) of 0.348. It also gave a relative viability ([1]; first compound 0.3162 µM) of 0.314 and a relative viability ([1]; first compound 1 µM) of 0.325.

In the case of NCI-H2342, the relative viability (BAM7 + Palbociclib; first compound 0.5 µM) is reported as 0.482, the relative viability (BAM7 + Palbociclib; first compound 5 µM) is reported as 0.498 and the relative viability (BAM7 + Palbociclib; first compound 15.81 µM) is reported as 0.531. For the same cell line, the relative viability (BAM7 + Palbociclib; first compound 50 µM) was 0.539, the relative viability (BAM7 + Luminespib; first compound 0.5 µM) was 0.691 and the relative viability (BAM7 + Luminespib; first compound 5 µM) was 0.726. For the same cell line, the relative viability (BAM7 + Luminespib; first compound 15.81 µM) was 0.768, the relative viability (BAM7 + Luminespib; first compound 50 µM) was 0.735 and the relative viability (BAM7 + AZD7762; first compound 0.5 µM) was 0.53. It also gave a relative viability (BAM7 + AZD7762; first compound 5 µM) of 0.61, a relative viability (BAM7 + AZD7762; first compound 15.81 µM) of 0.431 and a relative viability (BAM7 + AZD7762; first compound 50 µM) of 0.388. It also gave a relative viability ([1]; first compound 0.01 µM) of 0.521, a relative viability ([1]; first compound 0.03162 µM) of 0.549 and a relative viability ([1]; first compound 0.1 µM) of 0.551. For the same cell line, the relative viability ([1]; first compound 0.3162 µM) was 0.679 and the relative viability ([1]; first compound 1 µM) was 0.512.

EPLC-272H showed a relative viability (BAM7 + Palbociclib; first compound 0.5 µM) of 0.349, a relative viability (BAM7 + Palbociclib; first compound 5 µM) of 0.315 and a relative viability (BAM7 + Palbociclib; first compound 15.81 µM) of 0.327. It also gave a relative viability (BAM7 + Palbociclib; first compound 50 µM) of 0.351, a relative viability (BAM7 + Luminespib; first compound 0.5 µM) of 0.317 and a relative viability (BAM7 + Luminespib; first compound 15.81 µM) of 0.317. It also gave a relative viability (BAM7 + Luminespib; first compound 50 µM) of 0.507, a relative viability (BAM7 + AZD7762; first compound 0.5 µM) of 0.23 and a relative viability (BAM7 + AZD7762; first compound 5 µM) of 0.301. It also gave a relative viability (BAM7 + AZD7762; first compound 15.81 µM) of 0.226, a relative viability (BAM7 + AZD7762; first compound 50 µM) of 0.289 and a relative viability ([1]; first compound 0.01 µM) of 0.32. It also gave a relative viability ([1]; first compound 0.03162 µM) of 0.371, a relative viability ([1]; first compound 0.1 µM) of 0.297 and a relative viability ([1]; first compound 0.3162 µM) of 0.281. The relative viability ([1]; first compound 1 µM) was 0.259.

NCI-H1915 gave a relative viability (BAM7 + Palbociclib; first compound 0.5 µM) of 0.598, a relative viability (BAM7 + Palbociclib; first compound 5 µM) of 0.548 and a relative viability (BAM7 + Palbociclib; first compound 15.81 µM) of 0.516. For the same cell line, the relative viability (BAM7 + Palbociclib; first compound 50 µM) was 0.501, the relative viability (BAM7 + Luminespib; first compound 0.5 µM) was 0.769 and the relative viability (BAM7 + Luminespib; first compound 5 µM) was 0.886. The relative viability (BAM7 + Luminespib; first compound 15.81 µM) was 0.833, the relative viability (BAM7 + Luminespib; first compound 50 µM) was 0.76 and the relative viability (BAM7 + AZD7762; first compound 0.5 µM) was 0.676. It also gave a relative viability (BAM7 + AZD7762; first compound 5 µM) of 0.671, a relative viability (BAM7 + AZD7762; first compound 15.81 µM) of 0.759 and a relative viability (BAM7 + AZD7762; first compound 50 µM) of 0.741. For the same cell line, the relative viability ([1]; first compound 0.01 µM) was 0.488, the relative viability ([1]; first compound 0.03162 µM) was 0.545 and the relative viability ([1]; first compound 0.1 µM) was 0.531. It also gave a relative viability ([1]; first compound 0.3162 µM) of 0.487 and a relative viability ([1]; first compound 1 µM) of 0.537.

NCI-H322M showed a relative viability (BAM7 + Palbociclib; first compound 0.5 µM) of 0.527, a relative viability (BAM7 + Palbociclib; first compound 5 µM) of 0.564 and a relative viability (BAM7 + Palbociclib; first compound 15.81 µM) of 0.524. It also gave a relative viability (BAM7 + Palbociclib; first compound 50 µM) of 0.509, a relative viability (BAM7 + Luminespib; first compound 0.5 µM) of 0.876 and a relative viability (BAM7 + Luminespib; first compound 5 µM) of 0.966. It also gave a relative viability (BAM7 + Luminespib; first compound 15.81 µM) of 0.903, a relative viability (BAM7 + Luminespib; first compound 50 µM) of 0.93 and a relative viability (BAM7 + AZD7762; first compound 0.5 µM) of 0.554. It also gave a relative viability (BAM7 + AZD7762; first compound 5 µM) of 0.467, a relative viability (BAM7 + AZD7762; first compound 15.81 µM) of 0.544 and a relative viability (BAM7 + AZD7762; first compound 50 µM) of 0.583. The relative viability ([1]; first compound 0.01 µM) was 0.456, the relative viability ([1]; first compound 0.03162 µM) was 0.48 and the relative viability ([1]; first compound 0.1 µM) was 0.487. It also gave a relative viability ([1]; first compound 0.3162 µM) of 0.463 and a relative viability ([1]; first compound 1 µM) of 0.475.

NCI-H522 was tested, and the relative viability (BAM7 + Palbociclib; first compound 0.5 µM) was 1.19, the relative viability (BAM7 + Palbociclib; first compound 5 µM) was 0.986 and the relative viability (BAM7 + Palbociclib; first compound 15.81 µM) was 0.649. It also gave a relative viability (BAM7 + Palbociclib; first compound 50 µM) of 1.16, a relative viability (BAM7 + Luminespib; first compound 0.5 µM) of 1.2 and a relative viability (BAM7 + Luminespib; first compound 5 µM) of 1.2. It also gave a relative viability (BAM7 + Luminespib; first compound 15.81 µM) of 1.11, a relative viability (BAM7 + Luminespib; first compound 50 µM) of 0.993 and a relative viability (BAM7 + AZD7762; first compound 0.5 µM) of 0.748. For the same cell line, the relative viability (BAM7 + AZD7762; first compound 5 µM) was 0.967, the relative viability (BAM7 + AZD7762; first compound 15.81 µM) was 0.851 and the relative viability (BAM7 + AZD7762; first compound 50 µM) was 0.851. For the same cell line, the relative viability ([1]; first compound 0.01 µM) was 0.9, the relative viability ([1]; first compound 0.03162 µM) was 1.12 and the relative viability ([1]; first compound 0.1 µM) was 1.22. It also gave a relative viability ([1]; first compound 0.3162 µM) of 0.781 and a relative viability ([1]; first compound 1 µM) of 0.916.

Cell Line NCI-H647 has a relative viability (BAM7 + Palbociclib; first compound 0.5 µM) of 0.506, a relative viability (BAM7 + Palbociclib; first compound 5 µM) of 0.431 and a relative viability (BAM7 + Palbociclib; first compound 15.81 µM) of 0.509. It also gave a relative viability (BAM7 + Palbociclib; first compound 50 µM) of 0.447, a relative viability (BAM7 + Luminespib; first compound 0.5 µM) of 0.241 and a relative viability (BAM7 + Luminespib; first compound 5 µM) of 0.18. For the same cell line, the relative viability (BAM7 + Luminespib; first compound 15.81 µM) was 0.191, the relative viability (BAM7 + Luminespib; first compound 50 µM) was 0.146 and the relative viability (BAM7 + AZD7762; first compound 0.5 µM) was 0.559. For the same cell line, the relative viability (BAM7 + AZD7762; first compound 5 µM) was 0.488, the relative viability (BAM7 + AZD7762; first compound 15.81 µM) was 0.592 and the relative viability (BAM7 + AZD7762; first compound 50 µM) was 0.459. For the same cell line, the relative viability ([1]; first compound 0.01 µM) was 0.349, the relative viability ([1]; first compound 0.03162 µM) was 0.401 and the relative viability ([1]; first compound 0.1 µM) was 0.416. The relative viability ([1]; first compound 0.3162 µM) was 0.309 and the relative viability ([1]; first compound 1 µM) was 0.337.

With NCI-H2170 the relative viability (BAM7 + Palbociclib; first compound 0.5 µM) was 0.38, the relative viability (BAM7 + Palbociclib; first compound 5 µM) was 0.381 and the relative viability (BAM7 + Palbociclib; first compound 15.81 µM) was 0.329. It also gave a relative viability (BAM7 + Palbociclib; first compound 50 µM) of 0.319, a relative viability (BAM7 + Luminespib; first compound 0.5 µM) of 0.752 and a relative viability (BAM7 + Luminespib; first compound 5 µM) of 0.686. For the same cell line, the relative viability (BAM7 + Luminespib; first compound 15.81 µM) was 0.544, the relative viability (BAM7 + Luminespib; first compound 50 µM) was 0.624 and the relative viability (BAM7 + AZD7762; first compound 0.5 µM) was 0.652. The relative viability (BAM7 + AZD7762; first compound 5 µM) was 0.691, the relative viability (BAM7 + AZD7762; first compound 15.81 µM) was 0.614 and the relative viability (BAM7 + AZD7762; first compound 50 µM) was 0.804. The relative viability ([1]; first compound 0.01 µM) was 0.391, the relative viability ([1]; first compound 0.03162 µM) was 0.441 and the relative viability ([1]; first compound 0.1 µM) was 0.378. For the same cell line, the relative viability ([1]; first compound 0.3162 µM) was 0.372 and the relative viability ([1]; first compound 1 µM) was 0.435.
